Test results: PubChem BioAssay (NCI)
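1) Cells in 96-well plates. 2) Compound, 48 h, 5 concentrations. 3) Linear interpolation between surrounding doses. 4) Unreached endpoint = highest concentration. The concentration for 50% growth inhibition is given as GI50. TGI marks complete inhibition of growth.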

Columns and labels:
Assay in all cases: growth of human tumour cells (NCI), 48 h
NCI-H460 lung = test system: NCI-H460 lung
HCT-15 colon = test system: HCT-15 colon
K-562 leukemia = test system: K-562 leukemia
MCF7 breast = test system: MCF7 breast
SK-MEL-2 melanoma = test system: SK-MEL-2 melanoma
NCI-H522 lung = test system: NCI-H522 lung
SK-MEL-5 melanoma = test system: SK-MEL-5 melanoma
SW-620 colon = test system: SW-620 colon
SK-MEL-28 melanoma = test system: SK-MEL-28 melanoma
MDA-MB-231 breast = test system: MDA-MB-231 breast
IGROV1 ovarian = test system: IGROV1 ovarian
UACC-257 melanoma = test system: UACC-257 melanoma
CCRF-CEM leukemia = test system: CCRF-CEM leukemia
OVCAR-8 ovarian = test system: OVCAR-8 ovarian
SN12C renal = test system: SN12C renal
TK-10 renal = test system: TK-10 renal
T-47D breast = test system: T-47D breast
A498 renal = test system: A498 renal
UACC-62 melanoma = test system: UACC-62 melanoma
HS 578T breast = test system: HS 578T breast
RXF 393 renal = test system: RXF 393 renal
A549 NSCLC = test system: A549 NSCLC
SNB-19 CNS = test system: SNB-19 CNS
SK-OV-3 ovarian = test system: SK-OV-3 ovarian
BT-549 breast = test system: BT-549 breast
786-0 renal = test system: 786-0 renal
NCI/ADR-RES ovarian = test system: NCI/ADR-RES ovarian
NCI-H23 lung = test system: NCI-H23 lung
PC-3 prostate = test system: PC-3 prostate
SR leukemia = test system: SR leukemia

Question: How did the GI50 (NCI-H460 lung) turn out when `Cc1ccc(-c2nc(C#N)c(S(=O)(=O)N3CCN(S(C)(=O)=O)CC3)o2)cc1` was run?
Answer: Its GI50 is > 100 µM.

Question: And the TGI (NCI-H460 lung)?
Answer: Its TGI is > 100 µM.

Question: What about the GI50 (HCT-15 colon) of the same molecule?
Answer: Its GI50 is 3.81 µM.

Question: What about the TGI (HCT-15 colon) of the same molecule?
Answer: The TGI was 62.5 µM.

Question: And the GI50 (K-562 leukemia)?
Answer: Its GI50 is 6.66 µM.

Question: What about the TGI (K-562 leukemia) of the same molecule?
Answer: Its TGI is > 100 µM.

Question: What about the GI50 (MCF7 breast) of the same molecule?
Answer: Its GI50 is 3.74 µM.

Question: What about the TGI (MCF7 breast) of the same molecule?
Answer: The TGI was > 100 µM.

Question: And the GI50 (SK-MEL-2 melanoma)?
Answer: Its GI50 is > 100 µM.

Question: And the TGI (SK-MEL-2 melanoma)?
Answer: The TGI was > 100 µM.

Question: What about the GI50 (NCI-H522 lung) of the same molecule?
Answer: Its GI50 is 2.17 µM.

Question: And the TGI (NCI-H522 lung)?
Answer: The TGI was 5.94 µM.

Question: What about the GI50 (SK-MEL-5 melanoma) of the same molecule?
Answer: Its GI50 is > 100 µM.

Question: What about the TGI (SK-MEL-5 melanoma) of the same molecule?
Answer: Its TGI is > 100 µM.

Question: What about the GI50 (SW-620 colon) of the same molecule?
Answer: Its GI50 is 2.48 µM.

Question: And the TGI (SW-620 colon)?
Answer: Its TGI is 6.92 µM.

Question: And the GI50 (SK-MEL-28 melanoma)?
Answer: The GI50 was > 100 µM.

Question: And the TGI (SK-MEL-28 melanoma)?
Answer: Its TGI is > 100 µM.

Question: And the GI50 (MDA-MB-231 breast)?
Answer: The GI50 was > 100 µM.

Question: And the TGI (MDA-MB-231 breast)?
Answer: The TGI was > 100 µM.

Question: What about the GI50 (IGROV1 ovarian) of the same molecule?
Answer: The GI50 was > 100 µM.

Question: And the TGI (IGROV1 ovarian)?
Answer: The TGI was > 100 µM.

Question: What about the GI50 (UACC-257 melanoma) of the same molecule?
Answer: Its GI50 is 60.4 µM.

Question: And the TGI (UACC-257 melanoma)?
Answer: The TGI was > 100 µM.

Question: And the GI50 (CCRF-CEM leukemia)?
Answer: Its GI50 is 3.83 µM.

Question: What about the TGI (CCRF-CEM leukemia) of the same molecule?
Answer: Its TGI is > 100 µM.

Question: And the GI50 (OVCAR-8 ovarian)?
Answer: The GI50 was 23.2 µM.

Question: What about the TGI (OVCAR-8 ovarian) of the same molecule?
Answer: Its TGI is > 100 µM.

Question: And the GI50 (SN12C renal)?
Answer: Its GI50 is 75.1 µM.

Question: What about the TGI (SN12C renal) of the same molecule?
Answer: The TGI was > 100 µM.

Question: What about the GI50 (TK-10 renal) of the same molecule?
Answer: The GI50 was > 100 µM.

Question: And the TGI (TK-10 renal)?
Answer: The TGI was > 100 µM.

Question: What about the GI50 (T-47D breast) of the same molecule?
Answer: Its GI50 is 19.2 µM.

Question: And the TGI (T-47D breast)?
Answer: The TGI was > 100 µM.

Question: What about the GI50 (A498 renal) of the same molecule?
Answer: The GI50 was > 100 µM.

Question: What about the TGI (A498 renal) of the same molecule?
Answer: Its TGI is > 100 µM.

Question: And the GI50 (UACC-62 melanoma)?
Answer: The GI50 was > 100 µM.

Question: And the TGI (UACC-62 melanoma)?
Answer: Its TGI is > 100 µM.

Question: What about the GI50 (HS 578T breast) of the same molecule?
Answer: The GI50 was > 100 µM.

Question: What about the TGI (HS 578T breast) of the same molecule?
Answer: The TGI was > 100 µM.

Question: What about the GI50 (RXF 393 renal) of the same molecule?
Answer: The GI50 was 75.6 µM.

Question: What about the TGI (RXF 393 renal) of the same molecule?
Answer: The TGI was > 100 µM.

Question: What about the GI50 (A549 NSCLC) of the same molecule?
Answer: The GI50 was > 100 µM.

Question: And the TGI (A549 NSCLC)?
Answer: The TGI was > 100 µM.

Question: And the GI50 (SNB-19 CNS)?
Answer: Its GI50 is > 100 µM.

Question: What about the TGI (SNB-19 CNS) of the same molecule?
Answer: The TGI was > 100 µM.

Question: What about the GI50 (SK-OV-3 ovarian) of the same molecule?
Answer: The GI50 was > 100 µM.

Question: What about the TGI (SK-OV-3 ovarian) of the same molecule?
Answer: Its TGI is > 100 µM.

Question: What about the GI50 (BT-549 breast) of the same molecule?
Answer: Its GI50 is 47.4 µM.

Question: And the TGI (BT-549 breast)?
Answer: Its TGI is > 100 µM.

Question: And the GI50 (786-0 renal)?
Answer: The GI50 was 64 µM.

Question: And the TGI (786-0 renal)?
Answer: Its TGI is > 100 µM.

Question: What about the GI50 (NCI/ADR-RES ovarian) of the same molecule?
Answer: The GI50 was 28 µM.

Question: What about the TGI (NCI/ADR-RES ovarian) of the same molecule?
Answer: The TGI was > 100 µM.

Question: What about the GI50 (NCI-H23 lung) of the same molecule?
Answer: The GI50 was 19.3 µM.

Question: What about the TGI (NCI-H23 lung) of the same molecule?
Answer: Its TGI is > 100 µM.

Question: What about the GI50 (PC-3 prostate) of the same molecule?
Answer: Its GI50 is > 100 µM.

Question: What about the TGI (PC-3 prostate) of the same molecule?
Answer: The TGI was > 100 µM.

Question: And the GI50 (SR leukemia)?
Answer: Its GI50 is 3.16 µM.
